Patent US9085606B2, “Beta amino acid derivatives as integrin antagonists” (Saint Louis University, priority 2012, dated 2015)

How the values were obtained:
[1] = target: T1, Recombinant human integrin α5β1 (Homo sapiens, UniProt P05556+P08648); test: Solid Phase Receptor Assay for α5β1 Function; conditions: binding to fibronectin-coated plate; read-out: α5β1 SPRA IC50
T1 construct: purchased R&D Systems 3230-A5
Experimental: Solid Phase Receptor Assay for α5β1 Function.
Wells were washed 3 times with 150 μL TBS+ and 150 μl of blocking buffer (TBS+ with 1% bovine serum albumin, Sigma A7906) were added. The plate was incubated for 1 hr at 37° C. and then washed 3× with TBS+ buffer. […] Compounds were diluted 1:100 into the integrin solution and then 50 μL added to empty wells of the washed fibronectin-coated plate according to a standard template with each sample repeated in triplicate. After incubation for two hours at room temperature, the plate was washed 3× with 150 μL of TBS+ buffer. To each well, 50 μL of biotinylated anti-α5 antibody (R&D Systems, BAF1864) at 0.5 ug/mL in TBS+/0.1% BSA were added and the plate covered and incubated for 1 hr at room temperature. After washing the plate 3× with 150 μL of TBS+ buffer, 50 μL of streptavidin-conjugated horseradish peroxidase (R&D Systems, DY998) diluted in TBS+ blocking buffer were added to the wells and the plate incubated for 20 min at room temperature. The plate was washed 3× with TBS+ buffer followed by 50 μL of room temperature TMB substrate (Sigma, T444) added to each well and the plate incubated for 20 min at room temperature. The reaction was optionally stopped with 25 μL of Stop Solution (Sigma S5689). Plates were read by colorimetric detection at 650 nm wavelength using a Tecan Safire II plate reader.

[2] = target: T2, Recombinant human integrin αvβ1 (Homo sapiens, UniProt P05556+P06756); test: Solid Phase Receptor Assay for αvβ1 Function; conditions: binding to fibronectin-coated plate; read-out: αvβ1 SPRA IC50
T2 construct: purchased R&D Systems 6579-AV
T2 sequence (P06756 31-992 limits assumed): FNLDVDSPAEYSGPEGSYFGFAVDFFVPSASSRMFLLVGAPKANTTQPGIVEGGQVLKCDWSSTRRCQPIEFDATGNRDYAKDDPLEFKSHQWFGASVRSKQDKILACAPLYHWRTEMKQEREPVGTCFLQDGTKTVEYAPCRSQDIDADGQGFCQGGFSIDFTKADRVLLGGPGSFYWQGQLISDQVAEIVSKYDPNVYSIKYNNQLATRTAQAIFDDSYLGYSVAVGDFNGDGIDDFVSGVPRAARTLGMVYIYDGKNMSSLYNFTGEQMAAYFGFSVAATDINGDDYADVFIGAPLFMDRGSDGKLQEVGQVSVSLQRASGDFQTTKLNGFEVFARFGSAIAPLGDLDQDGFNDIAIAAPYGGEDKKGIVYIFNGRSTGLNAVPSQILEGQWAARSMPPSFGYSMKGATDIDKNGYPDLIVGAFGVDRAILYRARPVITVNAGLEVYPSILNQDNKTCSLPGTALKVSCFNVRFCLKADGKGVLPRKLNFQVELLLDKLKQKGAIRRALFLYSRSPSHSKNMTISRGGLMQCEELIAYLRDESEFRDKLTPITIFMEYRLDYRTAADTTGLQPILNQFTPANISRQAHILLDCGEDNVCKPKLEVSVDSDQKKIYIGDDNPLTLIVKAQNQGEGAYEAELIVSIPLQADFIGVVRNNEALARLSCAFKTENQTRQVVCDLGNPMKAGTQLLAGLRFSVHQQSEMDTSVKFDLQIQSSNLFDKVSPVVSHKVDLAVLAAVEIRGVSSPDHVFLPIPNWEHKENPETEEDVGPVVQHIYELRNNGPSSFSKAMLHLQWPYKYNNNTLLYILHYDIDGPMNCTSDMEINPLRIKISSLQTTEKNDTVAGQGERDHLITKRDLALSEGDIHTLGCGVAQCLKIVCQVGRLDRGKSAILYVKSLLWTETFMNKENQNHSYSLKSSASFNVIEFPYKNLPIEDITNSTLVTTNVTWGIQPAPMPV
T2 sequence (P05556 21-728 limits assumed): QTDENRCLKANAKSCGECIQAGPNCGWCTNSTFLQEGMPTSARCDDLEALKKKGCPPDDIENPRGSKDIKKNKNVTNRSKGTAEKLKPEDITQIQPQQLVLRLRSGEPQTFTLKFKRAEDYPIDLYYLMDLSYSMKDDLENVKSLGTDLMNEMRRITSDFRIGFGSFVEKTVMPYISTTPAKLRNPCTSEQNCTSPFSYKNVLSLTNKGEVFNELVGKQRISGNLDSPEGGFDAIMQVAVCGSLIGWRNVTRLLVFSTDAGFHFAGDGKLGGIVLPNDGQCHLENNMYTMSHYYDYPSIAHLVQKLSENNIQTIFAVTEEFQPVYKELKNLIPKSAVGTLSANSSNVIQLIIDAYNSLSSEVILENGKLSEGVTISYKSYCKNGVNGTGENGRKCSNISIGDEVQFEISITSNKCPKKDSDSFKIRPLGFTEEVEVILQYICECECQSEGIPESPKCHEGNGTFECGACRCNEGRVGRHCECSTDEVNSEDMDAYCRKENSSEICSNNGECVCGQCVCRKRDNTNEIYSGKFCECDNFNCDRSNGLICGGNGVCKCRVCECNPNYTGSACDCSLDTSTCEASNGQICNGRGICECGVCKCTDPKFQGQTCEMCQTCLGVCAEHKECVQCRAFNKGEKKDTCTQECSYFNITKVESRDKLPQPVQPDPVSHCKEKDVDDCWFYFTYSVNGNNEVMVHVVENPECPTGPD
Experimental: Solid Phase Receptor Assay for αvβ1 Function.
Wells were washed 3 times with 150 μl TBS+ and 150 μL of blocking buffer (TBS+ with 1% bovine serum albumin, Sigma A7906) were added. The plate was incubated for 1 hr at 37° C. and then washed 3× with TBS+ buffer. […] Compounds were diluted 1:100 into the integrin solution and 50 μL added to empty wells of the washed fibronectin-coated plate according to a standard template with each sample repeated in triplicate. After incubation for two hours at room temperature, the plate was washed 3× with 150 μL of TBS+ buffer. To each well, 50 μL of biotinylated anti-αv antibody (R&D Systems, BAF1219) at 1 μg/mL in TBS+/0.1% BSA were added and the plate covered and incubated for 1 hr at room temperature. After washing the plate 3× with 150 μL of TBS+ buffer, 50 μL of streptavidin-conjugated horseradish peroxidase (R&D Systems, DY998) diluted in TBS+ blocking buffer were added to the wells and the plate incubated for 20 min at room temperature. The plate was washed 3× with TBS+ buffer followed by 50 μL of TMB substrate (Sigma, T4444) added to each well and the plate incubated for 20 min at room temperature. The reaction was optionally stopped with 25 μL of Stop Solution (Sigma S5689). Plates were read by colorimetric detection at 650 nm wavelength using a Tecan Safire II plate reader.

[3] = target: T3, Recombinant human integrin αvβ3 (Homo sapiens, UniProt P05106+P06756); test: Solid Phase Receptor Assay for αvβ3 Function; conditions: binding to vitronectin-coated plate; read-out: αvβ3 SPRA IC50
T3 construct: purchased R&D Systems 3050-AV
T3 sequence (P06756 31-992 limits assumed): as the sequence (P06756 31-992 limits assumed) above
T3 sequence (P05106 27-718 limits assumed): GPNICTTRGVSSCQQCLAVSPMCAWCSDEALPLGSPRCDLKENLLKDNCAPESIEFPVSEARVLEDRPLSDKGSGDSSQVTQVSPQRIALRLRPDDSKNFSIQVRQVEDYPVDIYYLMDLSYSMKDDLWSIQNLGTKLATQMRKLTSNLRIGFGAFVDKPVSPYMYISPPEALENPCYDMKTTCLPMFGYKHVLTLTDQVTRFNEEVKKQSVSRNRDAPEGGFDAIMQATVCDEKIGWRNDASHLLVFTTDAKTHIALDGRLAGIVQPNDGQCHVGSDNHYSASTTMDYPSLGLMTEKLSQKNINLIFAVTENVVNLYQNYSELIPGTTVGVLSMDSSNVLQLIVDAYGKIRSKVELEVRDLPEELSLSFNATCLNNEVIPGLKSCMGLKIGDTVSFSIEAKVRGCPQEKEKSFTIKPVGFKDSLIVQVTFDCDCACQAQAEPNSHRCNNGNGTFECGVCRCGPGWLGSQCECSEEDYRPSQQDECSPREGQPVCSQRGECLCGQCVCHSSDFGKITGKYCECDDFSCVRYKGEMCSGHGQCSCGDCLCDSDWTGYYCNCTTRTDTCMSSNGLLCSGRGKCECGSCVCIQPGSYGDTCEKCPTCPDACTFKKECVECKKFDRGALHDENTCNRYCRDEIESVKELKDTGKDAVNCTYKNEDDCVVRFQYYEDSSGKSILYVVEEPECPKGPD
Experimental: Solid Phase Receptor Assay for αvβ3 Function.
Wells were washed 3 times with 150 μL TBS+ and 150 μL of blocking buffer (TBS+ with 1% bovine serum albumin, Sigma A7906) were added. The plate was incubated for 1 hr at 37° C. and then washed 3× with TBS+ buffer. […] Compounds were diluted 1:100 into the integrin solution and then 50 μL added to empty wells of the washed vitronectin-coated plate according to a standard template with each sample repeated in triplicate. After incubation for two hours at room temperature, the plate was washed 3× with 150 μL of TBS+ buffer. To each well, 50 μL of biotinylated anti-αv antibody (R&D Systems, BAF1219) at 0.5 μg/mL in TBS+/0.1% BSA were added and the plate covered and incubated for 1 hr at room temperature. After washing the plate 3× with 150 μL of TBS+ buffer, 50 μL of streptavidin-conjugated horseradish peroxidase (R&D Systems, DY998) diluted in TBS+ blocking buffer were added to the wells and the plate incubated for 20 min at room temperature. The plate was washed 3× with TBS+ buffer followed by 50 μL of TMB substrate (Sigma, T4444) added to each well and the plate was incubated for 20 min at room temperature. The reaction was optionally stopped with 25 μL of Stop Solution (Sigma, S5689). Plates were read by colorimetric detection at 650 nm wavelength using a Tecan S afire II plate reader.

[4] = target: T4, Recombinant human integrin αvβ6 (Homo sapiens, UniProt P06756+P18564); test: Solid Phase Receptor Assay for αvβ6 Function; conditions: binding to LAP-coated plate; read-out: αvβ6 SPRA IC50
T4 construct: purchased R&D Systems 3817-AV
T4 sequence (P06756 31-992 limits assumed): as the sequence (P06756 31-992 limits assumed) above
T4 sequence (P18564 22-707 limits assumed): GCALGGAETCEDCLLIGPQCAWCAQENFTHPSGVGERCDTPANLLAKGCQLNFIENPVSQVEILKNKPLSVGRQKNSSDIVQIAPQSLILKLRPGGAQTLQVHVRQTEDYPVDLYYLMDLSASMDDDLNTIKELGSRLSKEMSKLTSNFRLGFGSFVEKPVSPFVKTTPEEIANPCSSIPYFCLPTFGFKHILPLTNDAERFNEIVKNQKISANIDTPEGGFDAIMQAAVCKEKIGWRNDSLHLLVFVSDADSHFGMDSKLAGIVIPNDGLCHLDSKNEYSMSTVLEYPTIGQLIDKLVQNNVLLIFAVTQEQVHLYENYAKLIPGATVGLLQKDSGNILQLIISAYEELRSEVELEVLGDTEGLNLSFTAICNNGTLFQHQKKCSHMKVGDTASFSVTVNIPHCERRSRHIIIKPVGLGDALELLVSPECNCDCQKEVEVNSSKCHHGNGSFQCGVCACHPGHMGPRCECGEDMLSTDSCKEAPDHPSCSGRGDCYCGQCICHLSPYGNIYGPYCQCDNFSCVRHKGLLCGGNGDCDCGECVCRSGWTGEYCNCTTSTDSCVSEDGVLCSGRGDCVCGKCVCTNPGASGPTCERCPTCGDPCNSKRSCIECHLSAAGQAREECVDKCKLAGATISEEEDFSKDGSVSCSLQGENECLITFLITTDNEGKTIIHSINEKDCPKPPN
Experimental: Solid Phase Receptor Assay for αvβ6 Function.
Wells were washed 3 times with 150 μL TBS+, and 150 μL of blocking buffer (TBS+ with 1% bovine serum albumin, Sigma A7906) were added. The plate was incubated for 1 hr at 37° C., and then washed 3× with TBS+ buffer. […] Compounds were diluted 1:100 into the integrin solution and then 50 μL added to empty wells of the washed LAP-coated plate according to a standard template with each sample repeated in triplicate. After incubation for two hours at room temperature, the plate was washed 3× with 150 μL of TBS+ buffer. To each well, 50 μL of biotinylated anti-αv antibody (R&D Systems, BAF1219) at 0.5 μg/mL in TBS+/0.1% BSA were added and the plate was covered and incubated for 1 hr at room temperature. After washing the plate 3× with 150 μL of TBS+ buffer, 50 μL of streptavidin-conjugated horseradish peroxidase (R&D Systems, DY998) diluted in TBS+ blocking buffer were added to the wells and the plate incubated for 20 min at room temperature. The plate was washed 3× with TBS+ buffer followed by 50 μL of TMB substrate (Sigma T4444) added to each well and the plate incubated for 20 min at room temperature. The reaction was optionally stopped with 25 μL of Stop Solution (Sigma S5689). Plates were read by colorimetric detection at 650 nm wavelength using a Tecan Safire II plate reader.

T1 sequence (P08648 42-995 limits assumed): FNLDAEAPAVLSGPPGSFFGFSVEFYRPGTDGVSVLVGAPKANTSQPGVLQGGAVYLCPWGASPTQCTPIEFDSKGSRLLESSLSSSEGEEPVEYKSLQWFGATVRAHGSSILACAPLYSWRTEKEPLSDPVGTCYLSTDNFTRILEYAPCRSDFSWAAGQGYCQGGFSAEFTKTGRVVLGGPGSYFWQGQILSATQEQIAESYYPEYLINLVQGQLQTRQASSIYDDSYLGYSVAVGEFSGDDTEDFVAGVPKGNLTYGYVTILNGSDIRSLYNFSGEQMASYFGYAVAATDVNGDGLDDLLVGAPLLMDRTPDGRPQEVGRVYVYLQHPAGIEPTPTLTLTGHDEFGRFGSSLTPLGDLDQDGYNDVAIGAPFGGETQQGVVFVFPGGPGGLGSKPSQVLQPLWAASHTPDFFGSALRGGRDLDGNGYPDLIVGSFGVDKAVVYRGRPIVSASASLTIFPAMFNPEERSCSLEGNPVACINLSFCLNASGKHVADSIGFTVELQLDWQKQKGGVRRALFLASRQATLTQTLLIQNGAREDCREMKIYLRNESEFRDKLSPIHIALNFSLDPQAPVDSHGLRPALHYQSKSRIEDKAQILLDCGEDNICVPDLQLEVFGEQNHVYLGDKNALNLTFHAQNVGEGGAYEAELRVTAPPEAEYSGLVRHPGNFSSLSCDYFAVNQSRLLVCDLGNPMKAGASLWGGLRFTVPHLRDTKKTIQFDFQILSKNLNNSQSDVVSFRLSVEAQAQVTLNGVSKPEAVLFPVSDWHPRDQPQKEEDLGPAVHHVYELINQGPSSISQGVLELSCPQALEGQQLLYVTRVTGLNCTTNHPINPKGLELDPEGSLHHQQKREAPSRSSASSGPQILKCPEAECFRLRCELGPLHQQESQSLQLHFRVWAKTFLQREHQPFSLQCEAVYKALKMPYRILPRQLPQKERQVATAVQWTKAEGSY
T1 sequence (P05556 21-728 limits assumed): as the sequence (P05556 21-728 limits assumed) above

| Structure (SMILES) | IC50 [1] | IC50 [2] | IC50 [3] | IC50 [4] |
| --- | --- | --- | --- | --- |
| CC(C)(C)c1cc(Br)c(O)c([C@H](CC(=O)O)NC(=O)CNC(=O)c2cc(O)cc(NC3=NCC(O)CN3)c2)c1 (stereo partly drawn) [Example 1, (3S)-3-(3-bromo-5-(tert-butyl)-2-hydroxyphenyl)-3-(2-(3-hydroxy-5-((5-hydroxy-1,4,5,6-tetrahydropyrimidin-2-yl)amino)benzamido)acetamido)propanoic acid] | 0.5 nM | 2.1 nM | 5.1 nM | 0.4 nM |
| CC(C)(C)c1cc(Br)cc([C@H](CC(=O)O)NC(=O)CNC(=O)c2cc(O)cc(NC3=NCC(O)CN3)c2)c1O (stereo partly drawn) [Example 2, (3S)-3-(5-bromo-3-(tert-butyl)-2-hydroxyphenyl)-3-(2-(3-hydroxy-5-((5-hydroxy-1,4,5,6-tetrahydropyrimidin-2-yl)amino)benzamido)acetamido)propanoic acid] | 0.5 nM | 2.2 nM | 1.8 nM | 0.7 nM |
| CC(C)(O)c1cc(Br)cc([C@H](CC(=O)O)NC(=O)CNC(=O)c2cc(O)cc(NC3=NCC(O)CN3)c2)c1 (stereo partly drawn) [Example 3, (3S)-3-(3-bromo-5-(2-hydroxypropan-2-yl)phenyl)-3-(2-(3-hydroxy-5-((5-hydroxy-1,4,5,6-tetrahydropyrimidin-2-yl)amino)benzamido)acetamido)propanoic acid] | 0.3 nM | 2.2 nM | 2 nM | 0.7 nM |
| CC(C)(O)c1cc(Cl)cc([C@H](CC(=O)O)NC(=O)CNC(=O)c2cc(O)cc(NC3=NCC(O)CN3)c2)c1 (stereo partly drawn) [Example 4, (3S)-3-(3-chloro-5-(2-hydroxypropan-2-yl)phenyl)-3-(2-(3-hydroxy-5-((5-hydroxy-1,4,5,6-tetrahydropyrimidin-2-yl)amino)benzamido)acetamido)propanoic acid] | 0.7 nM | 1.7 nM | 2.3 nM | 0.5 nM |
| CC(C)(C)c1cc(Br)cc([C@H](CC(=O)O)NC(=O)CNC(=O)c2cccc(NC(=N)N)c2)c1 [Example 5, (S)-3-(3-bromo-5-(tert-butyl)phenyl)-3-(2-(3-guanidinobenzamido)acetamido) propanoic acid] | 0.6 nM | 3.2 nM | 2.6 nM | 0.6 nM |
| CC(C)(C)c1cc(Br)cc([C@H](CC(=O)O)NC(=O)CNC(=O)c2cncc(NC(=N)N)c2)c1 [Example 6, (S)-3-(3-bromo-5-(tert-butyl)phenyl)-3-(2-(5-guanidinonicotinamido)acetamido) propanoic acid] | 1 nM | 4.7 nM | 3.5 nM | 0.5 nM |
| CC(C)(C)c1cc(Br)cc([C@H](CC(=O)O)NC(=O)CNC(=O)c2cccc(NC3=NCCN3)c2)c1 [Example 7, (S)-3-(3-bromo-5-(tert-butyl)phenyl)-3-(2-(3-((4,5-dihydro-1H-imidazol-2-yl)amino)benzamido)acetamido)propanoic acid] | 0.7 nM | 2.7 nM | 1.3 nM | 0.2 nM |
| CC(C)(C)c1cc(Br)cc([C@H](CC(=O)O)NC(=O)CNC(=O)c2cncc(NC3=NCC(O)CN3)c2)c1 (stereo partly drawn) [Example 8, (3S)-3-(3-bromo-5-(tert-butyl)phenyl)-3-(2-(5-((5-hydroxy-1,4,5,6-tetrahydropyrimidin-2-yl)amino)nicotinamido)acetamido)propanoic acid] | 0.4 nM | 3 nM | 1.5 nM | 0.5 nM |
| CC(C)(C)c1cc(Br)cc([C@H](CC(=O)O)NC(=O)CNC(=O)c2cc(O)cc(NC3=NCCN3)c2)c1 [Example 9, (S)-3-(3-bromo-5-(tert-butyl)phenyl)-3-(2-(3-((4,5-dihydro-1H-imidazol-2-yl)amino)-5-hydroxybenzamido)acetamido)propanoic acid] | 0.5 nM | 2.4 nM | 2.9 nM | 0.5 nM |
| CC(C)(C)c1cc([C@H](CC(=O)O)NC(=O)CNC(=O)c2cncc(NC(=N)N)c2)cc(C(C)(C)C)c1 [Example 10, (S)-3-(3,5-di-tert-butylphenyl)-3-(2-(5-guanidinonicotinamido)acetamido)propanoic acid] | 0.5 nM | 2.1 nM | 172 nM | 1.2 nM |
| CC(C)(C#N)c1cc(Br)cc([C@H](CC(=O)O)NC(=O)CNC(=O)c2cc(O)cc(NC3=NCC(O)CN3)c2)c1 (stereo partly drawn) [Example 11, (3S)-3-(3-bromo-5-(2-cyanopropan-2-yl)phenyl)-3-(2-(3-hydroxy-5-((5-hydroxy-1,4,5,6-tetrahydropyrimidin-2-yl)amino)benzamido)acetamido)propanoic acid] | 0.3 nM | 2.8 nM | 3.4 nM | 0.5 nM |
| CC(C)(C)c1cc(C#N)cc([C@H](CC(=O)O)NC(=O)CNC(=O)c2cc(O)cc(NC3=NCC(O)CN3)c2)c1 (stereo partly drawn) [Example 12, (3S)-3-(3-(tert-butyl)-5-cyanophenyl)-3-(2-(3-hydroxy-5-((5-hydroxy-1,4,5,6-tetrahydro-pyrimidin-2-yl)amino)benzamido)acetamido)propanoic acid] | 0.3 nM | 2 nM | 2.8 nM | 0.4 nM |
| CC(C)(O)c1cc([C@H](CC(=O)O)NC(=O)CNC(=O)c2cc(O)cc(NC3=NCC(O)CN3)c2)cc(C(F)(F)F)c1 (stereo partly drawn) [Example 13, (3S)-3-(2-(3-hydroxy-5-((5-hydroxy-1,4,5,6-tetrahydropyrimidin-2-yl)amino)benzamido)acetamido)-3-(3-(2-hydroxypropan-2-yl)-5-(trifluoromethyl)phenyl)propanoic acid] | 0.9 nM | 4 nM | 1.8 nM | 0.6 nM |
